Source: US20120196853A1, “Novel Quinoline-Hepcidine Antagonists” (VIFOR (INTERNATIONAL) AG, priority 2009, published 2012)

Target: T1, human ferroportin (Fpn-HaloTag fusion protein) (Homo sapiens, UniProt Q9NP59)
T1 construct: expressed in transfected cells
T1 sequence (Q9NP59 1-571): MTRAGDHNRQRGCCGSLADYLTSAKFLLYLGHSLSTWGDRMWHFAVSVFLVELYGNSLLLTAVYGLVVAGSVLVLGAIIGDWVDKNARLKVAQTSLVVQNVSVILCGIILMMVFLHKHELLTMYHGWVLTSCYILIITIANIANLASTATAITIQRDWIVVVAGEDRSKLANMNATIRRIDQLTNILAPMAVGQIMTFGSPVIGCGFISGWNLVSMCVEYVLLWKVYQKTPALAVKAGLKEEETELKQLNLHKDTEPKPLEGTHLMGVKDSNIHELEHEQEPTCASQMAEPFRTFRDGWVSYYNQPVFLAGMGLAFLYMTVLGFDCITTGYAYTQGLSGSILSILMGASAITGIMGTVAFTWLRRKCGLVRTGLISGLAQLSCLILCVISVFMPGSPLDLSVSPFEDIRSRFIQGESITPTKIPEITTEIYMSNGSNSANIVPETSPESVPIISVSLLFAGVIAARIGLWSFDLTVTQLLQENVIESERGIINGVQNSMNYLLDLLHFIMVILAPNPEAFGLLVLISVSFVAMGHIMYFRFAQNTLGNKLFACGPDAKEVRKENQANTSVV
Assay: ferroportin internalization assay (inhibition of hepcidin-induced internalization of Fpn, MDCK-FPN-HaloTag cells)
Assay type: cell-based
Conditions: for IC50: 100 nM hepcidin, overnight, dilution series 0.04 to 40 μM
Protocol: The hepcidin-antagonistic action of the quinoline compounds of the present invention was determined by means of the “ferroportin internalization assay” described in the following.
Organic compounds of low molecular weight which counteract the biological actions of hepcidin on its receptor, the iron exporter ferroportin (Fpn), were identified on the basis of their ability to inhibit hepcidin-induced internalization of Fpn in living cells. For this purpose, a stable cell line (Madin-Darby canine kidney, MDCK) was produced which constitutively expresses human ferroportin fused recombinantly at its C terminus with a fluorescent reporter protein (HaloTag®, Promega Corp.). The internalization of Fpn was monitored by labelling these cells with fluorescent ligands (HaloTag®-TMR, tetramethylrhodamine) which join covalently on to the HaloTag reporter gene fused with the Fpn. […] Optimized image analysis algorithms were used to ascertain the cell surface and to quantify the corresponding membrane fluorescence associated with the Fpn-HaloTag fusion protein. This assay allows a quantitative image-based analysis in order to quickly evaluate compounds which can block hepcidin-induced internalization of Fpn. This assay is a direct in vitro pendant of the in vivo action mechanism proposed for medicament candidates and is therefore suitable as an initial assay with a high throughput for identifying compounds which counteract the action of hepcidin on its receptor ferroportin.
• 7,500 cells per well (MDCK-FPN-HaloTag) were transinoculated in 50 μl DMEM medium (Dulbeccos modified Eagle medium with 10% foetal bovine serum (FBS), which contained 1% penicillin, 1% streptomycin and 450 μg/ml of G-418) in microtitre plates with 384 wells, (384 Cell carrier plates, Perkin Elmer, cat. no. 6007430), followed by incubation overnight at 37° C./5% CO2. • The volume of the medium was reduced to 10 μl, and 10 μl of 5 μM HaloTag-TMR ligands (Promega, cat. no. G 8251) were added in DMEM medium in order to stain the Fpn-HaloTag fusion protein. • 15 min incubation at 37° C./5% CO2 • The HaloTag-TMR ligand was removed and the cells were washed with fresh DMEM medium and the volume was reduced to 20 μl of DMEM medium. • 3 μl per well of a solution of the test compound (dissolved DMSO) were added ([…]). • 7 μl of […] hepcidin (Peptides International, cat. no. PLP-4392-s, 100 μM stock solution diluted in water in DMEM medium) were added per well up to a final hepcidin concentration of 100 nM. • The cells were incubated overnight at 37° C./5% CO2. • The cells were fixed by adding paraformaldehyde (PFA, Electron Microscopy Sciences, cat. no. 15710-S) directly to the cells up to a final concentration of 4%, followed by incubation at room temperature for 15-20 minutes. • The PFA solution was removed and the cells were washed with PBS (phosphate-buffered saline solution), in each case 30 μl remaining in the plate. • 20 μl of Draq5 (Biostatus, cat. no. DR 51000) were added up to a final concentration of 2.5 μM in order to stain the cell nuclei, and the plates were sealed with a foil plate seal. • The plates were analysed with the Opera Plate Imager (Opera Confocal Plate Imager, Perkin Elmer) with 7 images per well; 440 ms exposure time per image, […] focal point height.

Structure (SMILES) | IC50 [µM] | I [%] (median inhibition [%] at 10 μM substance conc.) (10 μM substance conc., hepcidin-induced Fpn internalization)
O=C(Oc1c(CN2CCOCC2)cc(Cl)c2cccnc12)c1ccccc1 [Example 5, Benzoic acid 5-chloro-7-morpholin-4-ylmethyl-quinolin-8-yl ester] | < 50 | <50
Oc1c(C(c2nccn2Cc2ccccc2)N2CCOCC2)ccc2cccnc12 (stereo not drawn) [Example 16] | < 50 | 
N#Cc1ccc(C(c2ccc3cccnc3c2O)N2CCOCC2)cc1 (stereo not drawn) [Example 10, 4-[(8-Hydroxy-quinolin-7-yl)-morpholin-4-yl-methyl]-benzonitrile] | < 50 | 

Continued, values first:

IC50 [µM] | I [%] (median inhibition [%] at 10 μM substance conc.) (10 μM substance conc., hepcidin-induced Fpn internalization) | Structure (SMILES)
< 50 |  | Oc1c(C(c2cccs2)N2CCOCC2)cc(Cl)c2cccnc12 (stereo not drawn) [Example 39, 5-Chloro-7-(morpholin-4-yl-thiophen-2-yl-methyl)-quinolin-8-ol]
< 50 |  | Oc1c(C(c2ccccn2)N2CCCCC2)cc(Cl)c2cccnc12 (stereo not drawn) [Example 32, 5-Chloro-7-(piperidin-1-yl-pyridin-2-yl-methyl)-quinolin-8-ol]
